Measured values taken from PMC7407242, “Deamidated Human Triosephosphate Isomerase is a Promising Druggable Target” (Biomolecules, 2020).

Key:
[1] = molecular target: T1, HsTIM (human triosephosphate isomerase) (Homo sapiens, UniProt P60174); experiment: TIM activity in lysate of treated E. coli tim-deletion cells; format: cell-based; set-up: gene TPI1; full-length; tagged plasmid in E. coli tim-deletion BL21-Gold(DE3) cells for omeprazole; homodimer, 5 Cys per subunit; settings: residual activity; 0.75 mM omeprazole, 22 h at 37 °C, M9 medium; covalent
T1 sequence (P60174 2-249): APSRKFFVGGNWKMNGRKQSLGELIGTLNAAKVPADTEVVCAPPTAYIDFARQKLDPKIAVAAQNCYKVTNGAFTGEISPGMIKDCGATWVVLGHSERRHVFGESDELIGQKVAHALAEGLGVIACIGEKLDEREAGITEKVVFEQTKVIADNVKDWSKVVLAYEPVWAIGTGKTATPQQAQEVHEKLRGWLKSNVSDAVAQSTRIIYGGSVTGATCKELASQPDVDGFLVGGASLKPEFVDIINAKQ
Source text: TIM activity in lysate of treated E. coli tim-deletion cells on HsTIM (human triosephosphate isomerase)

[2] = molecular target: T2, HsTIM (human triosephosphate isomerase) (Homo sapiens, UniProt P60174, N16D); experiment: residual activity after preincubation, coupled alpha-GPDH / NADH assay at […] nm; format: biochemical; settings: read-out: activity dropped to 50%
T2 construct: gene TPI1; full-length; recombinant E. coli BL21-CodonPlus(DE3)-RIL, vector pET3a-HisTEV, N-terminal His6-TEV tag cut by TEVp for purified assays; tagged plasmid in E. coli tim-deletion BL21-Gold(DE3) cells for omeprazole; homodimer, 5 Cys per subunit
T2 sequence (P60174 2-249 N16D): as the sequence (P60174 2-249) above, with N15D counted along it

[3] = molecular target: T1, HsTIM (human triosephosphate isomerase); experiment: Ellman free thiol count after derivatization; format: binding; set-up: gene TPI1; full-length; recombinant E. coli BL21-CodonPlus(DE3)-RIL, vector pET3a-HisTEV, N-terminal His6-TEV tag cut by TEVp for purified assays; tagged plasmid in E. coli tim-deletion BL21-Gold(DE3) cells for omeprazole; homodimer, 5 Cys per subunit; settings: covalent; 250 µM compound, 2 h at 37 °C, enzyme 0.5 mg/mL, TE buffer pH 7.4
Source text: Ellman free thiol count after derivatization on HsTIM (human triosephosphate isomerase)

| Enzyme Activity (%) [1] | IC50 [2] | Derivatized Cys/Subunit [3] | Structure (SMILES) |
| --- | --- | --- | --- |
| 96 ± 4% |  |  | COc1ccc2[nH]c([S+]([O-])Cc3ncc(C)c(OC)c3C)nc2c1 (stereo not drawn) [omeprazole] |
|  | 7.5 µM | 1 Cys/subunit | CSS(C)(=O)=O [MMTS] |
|  | 3 µM |  | O=C(O)c1cc(SSc2ccc([N+](=O)[O-])c(C(=O)O)c2)ccc1[N+](=O)[O-] [DTNB, 5,5′-dithiobis-(2-nitrobenzoic acid)] |
|  | 6 µM | 1 Cys/subunit | CS(=O)(=O)SCCS(=O)(=O)O [MTSES, sodium 2-[(methylsulfonyl)sulfanyl] ethanesulfonate] |
